Read-outs that look alike come from different tables or passages of the source.

Results on 24 compounds are retold here after patent EP4810508A1, “ARABINOSE DERIVATIVE COMPOUND, AND COMPOSITION COMPRISING SAME FOR PREVENTING OR TREATING DEGENERATIVE BRAIN DISEASES” (Digmbio. Inc., priority 2023, dated 2025).

For this series, the system named is HRE/Luc/HEK293 cells. Briefly: HRE (Hypoxia Response Element) luciferase assay. The settings on record: for fold induction at 10 µM / fold induction at 100 µM: Homo sapiens; for HRE assay: increase in HRE expression levels by the test substance relative to the vehicle in HRE/Luc/HEK293 cells; for HRE expression: low concentration of 1 µM. The series is classed as cell-based, human. The method, then:
• (a) HRE assay: Confirmation of increased in HRE expression levels by the test substance relative to the vehicle in HRE/Luc/HEK293 cells • * Less than a twofold increase at 100 µM, • ** More than a twofold increase at 100 µM, • *** More than a twofold increase at 10 µM, • **** More than a twofold increase at 1 µM, • Not performed.
It has been reported that in the brains of AD patients, blood supply is mostly insufficient, resulting in oxygen levels being up to 50% lower than those of normal individuals, leading to increased oxidative stress (ROS) and neuroinflammation. It has also been studied that when the HIF-1α (hypoxia inducible factor-1) factor binds to the HRE (hypoxia response element), it increases VEGF (vascular endothelial growth factor), which promotes the formation of new blood vessels, thereby increasing oxygen levels in the brain and helping to inhibit nerve cell damage.
A reporter gene containing luciferase, capable of verifying the level of HRE expression, was inserted into HEK-293 human embryonic kidney cells, and HRE/Luc/HEK293 cells were constructed by inserting a plasmid (HRE/Luc) with luciferase attached downstream of the HRE promoter that binds to HIF-1α using lipofectamine (Invitrogen).
To perform HRE luciferase analysis, HRE/Luc/HEK293 cells were seeded in 96-well culture plates at a cell density of 4 x 10^4 per well in minimal essential medium (MEM) containing 10% fetal bovine serum. After one day, the cell medium was removed and replaced with medium mixed with various concentrations of example compounds. Six hours after compound pretreatment, HRE/Luc/HEK293 cells were cultured under hypoxic conditions (O2 0.1%) for 18 hours. Subsequently, the cells were washed with phosphate buffer, lysed with lysis buffer, and then the luciferase reagent (Promega) for luciferase analysis was added. Afterward, changes in HRE expression levels associated with HIF-1 signaling were evaluated by measuring luminescence using an Infinite200 (Tecan).

Where [1] appears, read: HEK293, 18 h, 10uM, Table 2 (Examples 37-74, 52), read-out: HKt-increasing 10uM.
[2] abbreviates: HEK293, 18 h, 100uM, Table 2 (Examples 37-74, 52), read-out: HKt-increasing 100uM.
[3] abbreviates: HEK293, 18 h, 10uM, Table 2 (Examples 75-109, 114), read-out: HRE-inceasing 10uM.
Where [4] appears, read: HEK293, 18 h, 100uM, Table 2 (Examples 75-109, 114), read-out: HRE-inceasing 100uM.
[5] abbreviates: HEK293, 10uM, fold increase of HRE expression, hypoxic conditions (O2 0.1%) 18 hours, Table 2, read-out: HRE-increasing 10uM.
[6] abbreviates: HEK293, 100uM, fold increase of HRE expression, hypoxic conditions (O2 0.1%) 18 hours, Table 2, read-out: HRE-increasing 100uM.

For `COc1ccc(Cc2ccc(O[C@H]3OC[C@@H](O)[C@H](O)[C@H]3O)cc2)cc1` [Example 42, (2R,3R,4S,5R)-2-(4-(4-methoxybenzyl)phenoxy) tetrahydro-2H-pyran-3,4,5-triol], the fold induction at 10 µM under setting [1] came to 2.4. The fold induction at 100 µM under setting [2] amounted to 3.1.

Regarding `O[C@@H]1[C@@H](O)[C@@H](Oc2ccc(Cc3ccc(OC(F)(F)F)cc3)cc2)OC[C@@H]1O` [Example 10], the HRE assay entry is listed as “•”. Further, the “HRE-increasing 10uM” value (10uM, fold increase of HRE expression, hypoxic conditions (O2 0.1%) 18 hours, Table 2) came to 1. Moreover, the “HRE-increasing 100uM” value (100uM, fold increase of HRE expression, hypoxic conditions (O2 0.1%) 18 hours, Table 2) is given as less than 1.

Consider `CC(C)c1cccc2nc(-c3cccc(O[C@@H]4OC[C@H](O)[C@H](O)[C@H]4O)c3)oc12` [Example 98, (2S,3R,4S,5S)-2-(3-(7-isopropylbenzo[d]oxazol-2-yl)phenoxy)tetrahydro-2H-pyran-3,4,5-triol], for which the fold induction at 10 µM under setting [3] amounted to 1.1. Moreover, the fold induction at 100 µM under setting [4] is 1.4.

For `CC(C)c1ccc(Oc2ccc(O[C@H]3OC[C@@H](O)[C@H](O)[C@H]3O)c(Cl)c2)cc1` [Example 67, (2R,3R,4S,5R)-2-(2-chloro-4-(4-isopropylphenoxy)henoxy)tetrahydro-2H-pyran-3,4,5-triol], the HRE expression entry is listed as “more than threefold”. For the same compound, under setting [1], the fold induction at 10 µM is 3.5. The fold induction at 100 µM under setting [2] was determined as 2.6.

For the compound `CC(C)c1ccc(Oc2ccc(O[C@H]3OC[C@H](O)[C@H](O)[C@H]3O)c(Cl)c2)cc1` [Example 57, (2R,3R,4S,5S)-2-(2-chloro-4-(4-isopropylphenoxy)phenoxy)tetrahydro-2H-pyran-3,4,5-triol], the HRE expression result is “more than threefold”. Further, the fold induction at 10 µM under setting [1] stood at 3.2. The fold induction at 100 µM under setting [2] turned out to be 2.8.

With `Cc1ccc2oc(-c3ccc(O[C@@H]4OC[C@H](O)[C@H](O)[C@H]4O)cc3)nc2c1` [Example 108, (2S,3R,4S,5S)-2-(4-(5-methylbenzo[d]oxazol-2-yl)phenoxy)tetrahydro-2H-pyran-3,4,5-triol], the HRE expression result is given as “more than threefold”. Besides, the fold induction at 10 µM under setting [3] is 3.6. For the same compound, the fold induction at 100 µM under setting [4] is 1.6.

Take `COc1ccc(Cc2ccc(O[C@H]3OC[C@H](O)[C@H](O)[C@H]3O)cc2)cc1OC` [Example 17, (2R,3R,4S,5S)-2-(4-(3,4-dimethoxybenzyl)phenoxy)tetrahydro-2H-pyran-3,4-triol]: the fold induction at 10 µM under setting [5] was 1.2. In addition, the fold induction at 100 µM under setting [6] stood at 1.5.

Turning to `O[C@@H]1[C@@H](O)[C@H](Oc2ccc(CN3CCCC3)cc2)OC[C@@H]1O` [Example 75, (2S,3R,4S,5S)-2-(4-(pyrrolidin-1-ylmethyl)phenoxy)tetrahydro-2H-pyran-3,4,5-triol], the fold induction at 10 µM under setting [3] came out at 1. Further, the fold induction at 100 µM under setting [4] was found to be 1.

Turning to `COc1ccc2oc(-c3cccc(O[C@@H]4OC[C@H](O)[C@H](O)[C@H]4O)c3)nc2c1` [Example 106, (2S,3R,4S,5S)-2-(3-(5-methoxybenzo[d]oxazol-2-yl)phenoxy)tetrahydro-2H-pyran-3,4,5-triol], the HRE expression entry is recorded as “more than threefold”. In addition, the fold induction at 10 µM under setting [3] came out at 3.4. The fold induction at 100 µM under setting [4] was 1.7.

In the case of `CC(C)c1ccc(Oc2cccc(O[C@H]3OC[C@H](O)[C@H](O)[C@H]3O)c2)cc1` [Example 54, (2R,3R,4S,5S)-2-(3-(4-isopropylphenoxy)phenoxy)tetrahydro-2H-pyran-3,4,5-triol], the fold induction at 10 µM under setting [1] was found to be 1. The fold induction at 100 µM under setting [2] was found to be 1.5.

`CC(C)[C@H]1CC[C@H](Cc2ccc(O[C@H]3OC[C@H](O)[C@H](O)[C@H]3O)cc2)CC1` [Example 74, (2R,3R,4S,5S)-2-(4-(((1R,4R)-4-isopropylcyclohexyl)methyl)phenoxy)tetrahydro-2H-pyran-3,4,5-triol]: the fold induction at 10 µM under setting [1] turned out to be 1.9. The fold induction at 100 µM under setting [2] stood at 3.

On to `COc1ccc2cc(-c3ccc(O[C@H]4OC[C@H](O)[C@H](O)[C@H]4O)cc3)oc2c1` [Example 81, (2R,3R,4S,5S)-2-(4-(6-methoxybenzofuran-2-yl)phenoxy)tetrahydro-2H-pyran-3,4,5-triol], for which, under setting [3], the fold induction at 10 µM was found to be 2.7. Further, the fold induction at 100 µM under setting [4] was 3.6.

With `CC(C)c1ccc(Oc2ccc(O[C@H]3OC[C@@H](O)[C@H](O)[C@H]3O)c(F)c2)cc1` [Example 101, (2R,3R,4S,5R)-2-(2-fluoro-4-(4-isopropylphenoxy)phenoxy)tetrahydro-2H-pyran-3,4,5-triol], under setting [3], the fold induction at 10 µM is 3.7. Further, the fold induction at 100 µM under setting [4] is 2.5.

As for `CO[C@H]1[C@@H](Oc2ccc(Oc3ccc(C(C)C)cc3)cc2)OC[C@H](O)[C@@H]1O` [Example 62, (3S,4S,5R,6R)-6-(4-(4-isopropylphenoxy)phenoxy)-5-methoxytetrahydro-2H-pyran 3,4-diol], the fold induction at 10 µM under setting [1] amounted to 2.3. For the same compound, the fold induction at 100 µM under setting [2] is 2.2.

For the compound `CC(C)c1ccc2nc(-c3ccc(O[C@H]4OC[C@H](O)[C@H](O)[C@H]4O)cc3)oc2c1` [Example 88, (2R,3R,4S,5S)-2-(4-(6-isopropylbenzo[d]oxazol-2-yl)phenoxy)tetrahydro-2H-pyran-3,4,5-triol], under setting [3], the fold induction at 10 µM turned out to be 1.7. The fold induction at 100 µM under setting [4] is 3.1.

With `CSc1ccc(Cc2ccc(O[C@H]3OC[C@H](O)[C@H](O)[C@H]3O)cc2)cc1` [Example 11, (2R,3R,4S,5S)-2-(4-(4-(methylthio)benzyl)phenoxy)tetrahydro-2H-pyran-3,4,5-triol], the HRE assay entry is recorded as “•••”. Besides, the fold induction at 10 µM under setting [5] is 2.4. Also, the fold induction at 100 µM under setting [6] was 2.4.

With `Cc1ccc2oc(-c3ccc(O[C@H]4OC[C@H](O)[C@H](O)[C@H]4O)cc3)nc2c1` [Example 109, (2R,3R,4S,5S)-2-(4-(5-methylbenzo[d]oxazol-2-yl)phenoxy)tetrahydro-2H-pyran-3,4,5-triol], the HRE expression result was “more than threefold”. Under setting [3], the fold induction at 10 µM was found to be 3.2. Besides, under setting [4], the fold induction at 100 µM was 4.4.

Turning to `O[C@@H]1[C@@H](O)[C@@H](O)CO[C@@H]1Sc1ccc(Cc2ccccc2)cc1` [Example 26, (2R,3R,4S,5S)-2-((4-benzylphenyl)thio)tetrahydro-2H-pyran-3,4,5-thiol], under setting [5], the fold induction at 10 µM amounted to 2.1. Besides, under setting [6], the fold induction at 100 µM came out at 2.5.

Take `COc1ccc2oc(-c3ccc(O[C@H]4OC[C@H](O)[C@H](O)[C@H]4O)cc3)nc2c1` [Example 91, (2R,3R,4S,5S)-2-(4-(5-methoxybenzo[d]oxazol-2-yl)phenoxy)tetrahydro-2H-pyran-3,4,5-triol]: the fold induction at 10 µM under setting [3] was 2.4. Further, under setting [4], the fold induction at 100 µM worked out at 2.8.

For the compound `CC(C)c1cccc2nc(-c3cccc(O[C@H]4OC[C@H](O)[C@H](O)[C@H]4O)c3)oc12` [Example 97, (2R,3R,4S,5S)-2-(3-(7-isopropylbenzo[d]oxazol-2-yl)phenoxy)tetrahydro-2H-pyran-3,4,5-triol], under setting [3], the fold induction at 10 µM was 1.1. Also, the fold induction at 100 µM under setting [4] was 1.2.

Turning to `COc1ccc(-c2ccc(O[C@H]3OC[C@H](O)[C@H](O)[C@H]3O)cc2)cn1` [Example 85, (2R,3R,4S,5S)-2-(4-(6-methoxypyridin-3-yl)phenoxy)tetrahydro-2H-pyran-3,4,5-triol], the fold induction at 10 µM under setting [3] stood at 1.3. Besides, the fold induction at 100 µM under setting [4] was 2.6.

With `CC(C)c1ccc(Oc2ccc(O[C@@H]3C[C@@H](O)[C@@H](O)CO3)cc2)cc1` [Example 66, (3S,4R,6R)-6-(4-(4-isopropylphenoxy)phenoxy)tetrahydro-2H-pyran-3,4-diol], under setting [1], the fold induction at 10 µM is 2.9. Under setting [2], the fold induction at 100 µM was 2.2.

On to `COc1ccc(Oc2ccc(O[C@H]3OC[C@H](O)[C@H](O)[C@H]3O)cc2)cc1` [Example 55, (2R,3R,4S,5S)-2-(4-(4-methoxyphenoxy)phenoxy)tetrahydro-2H-pyran-3,4,5-triol], for which the fold induction at 10 µM under setting [1] turned out to be 1.8. Further, the fold induction at 100 µM under setting [2] came to 2.9.

With `COc1ccc(Cc2ccc(S[C@H]3OC[C@H](O)[C@H](O)[C@H]3O)cc2)cc1` [Example 29, (2R,3R,4S,5S)-2-((4-(4-methoxybenzyl)phenyl)thio) tetrahydro-2H-pyran-3,4,5-thiol], under setting [5], the fold induction at 10 µM turned out to be 2.7. Further, under setting [6], the fold induction at 100 µM was determined as 2.6.
